# Test results as given in ChEMBL document CHEMBL3091420, “Synthesis and biochemical evaluation of highly enantiomerically pure (R,R)- and (S,S)-alexidine” (Bioorg Med Chem, 2013).
# Structures can show the parent of a compound that is named as a salt.
# Target: Bcl-xL/BAK (Homo sapiens, UniProt Q07817+Q16611)
# Experiment: Inhibition of Bcl-xL (1 to 206, delta 45 to 84)-BAK (unknown origin) protein interaction by fluorescence polarization assay
# Sequence of Bcl-xL/BAK (Q07817 whole entry): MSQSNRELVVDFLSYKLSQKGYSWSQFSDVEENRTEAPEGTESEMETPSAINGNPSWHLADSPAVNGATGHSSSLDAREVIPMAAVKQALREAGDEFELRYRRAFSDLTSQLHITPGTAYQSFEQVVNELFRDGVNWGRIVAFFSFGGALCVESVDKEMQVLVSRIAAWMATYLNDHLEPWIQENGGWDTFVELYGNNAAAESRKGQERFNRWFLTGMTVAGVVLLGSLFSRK
# Sequence of Bcl-xL/BAK (Q16611 whole entry): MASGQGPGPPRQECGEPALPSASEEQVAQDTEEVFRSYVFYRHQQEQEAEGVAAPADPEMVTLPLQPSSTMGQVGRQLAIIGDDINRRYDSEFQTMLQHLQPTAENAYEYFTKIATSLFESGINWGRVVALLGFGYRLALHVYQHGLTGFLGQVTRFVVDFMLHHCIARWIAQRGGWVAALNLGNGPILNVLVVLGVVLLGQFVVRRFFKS
row,IC50 [µM],SMILES
1,18.3,CCCCC(CC)CNC(=N)NC(=N)NCCCCCCNC(=N)NC(=N)NCC(CC)CCCC (mixture of isomers) [ALEXIDINE DIHYDROCHLORIDE]
2,21.3,CCCC[C@@H](CC)CNC(=N)NC(=N)NCCCCCCNC(=N)NC(=N)NC[C@H](CC)CCCC
3,25.7,CCCC[C@H](CC)CNC(=N)NC(=N)NCCCCCCNC(=N)NC(=N)NC[C@@H](CC)CCCC
